Measured values published in patent US20240166652A1, “MODULATORS OF THE INTEGRATED STRESS PATHWAY” (Calico Life Sciences LLC, priority 2017, published 2024).

system: ATF4 luciferase reporter in HEK293T cells; assay: ATF4-Luc assay (ATF4 luciferase reporter, tunicamycin-treated HEK293T cells); format: cell-based, human; details: Homo sapiens, HEK-293T; HEK293T cells carrying the ATF4 luciferase reporter, 1 μg/mL tunicamycin, 7 hours

| SMILES | EC50 |
| --- | --- |
| O=C(COc1ccc(Cl)c(F)c1)NC12CCC(NC(=O)COc3ccc(F)cc3)(CC1)C(O)C2 (stereo not shown) [Compound 345, 2-(4-chloro-3-fluorophenoxy)-N-{4-[2-(4-fluorophenoxy)acetamido]-3-hydroxybicyclo[2.2.2]octan-1-yl}acetamide] | < 10 nM |
| O=C(COc1ccc(Cl)c(F)c1)NC12CC(NC(=O)Cc3cc(F)cc(F)c3)(C1)C2 [Compound 491, 2-(4-chloro-3-fluorophenoxy)-N-{3-[2-(3,5-difluorophenyl)acetamido]bicyclo[1.1.1]pentan-1-yl}acetamide] | > 2000 nM |
| O=C(COc1ccc(Cl)c(F)c1)NC12CCC(NC(=O)COc3ccc(C(F)(F)F)cc3)(CC1)[C@@H](O)C2 [Compound 507, 2-(4-chloro-3-fluorophenoxy)-N-[(3S)-3-hydroxy-4-{2-[4-(trifluoromethyl)phenoxy]acetamido}bicyclo[2.2.2]octan-1-yl]acetamide] | < 10 nM |
| O=C(COc1ccc(Cl)cc1)NC12CC(NC(=O)COc3ccc(F)c(Cl)c3)(C1)C2 [Compound 546, 2-(3-chloro-4-fluorophenoxy)-N-{3-[2-(4-chlorophenoxy)acetamido]bicyclo[1.1.1]pentan-1-yl}acetamide] | < 10 nM |
| O=C(COc1cc(F)c2cn[nH]c2c1)NC12CCC(NC(=O)COc3ccc(F)c(F)c3)(CC1)[C@@H](O)C2 [Compound 728, 2-(3,4-difluorophenoxy)-N-[(2S)-4-{2-[(4-fluoro-1H-indazol-6-yl)oxy]acetamido}-2-hydroxybicyclo[2.2.2]octan-1-yl]acetamide] | < 10 nM |
| O=C(COc1ccc(Cl)c(F)c1)NC12CC(NS(=O)(=O)Cc3ccccc3F)(C1)C2 [Compound 481, 2-(4-chloro-3-fluorophenoxy)-N-(3-{[(2-fluorophenyl)methanesulfonyl]amino}bicyclo[1.1.1]pentan-1-yl)acetamide] | > 2000 nM |
| CCOc1ccc(OCC(=O)NC23CCC(NC(=O)COc4ccc(Cl)c(F)c4)(CC2)[C@@H](O)C3)cc1 [Compound 464, 2-(4-chloro-3-fluorophenoxy)-N-{(2S)-4-[2-(4-ethoxyphenoxy)acetamido]-2-hydroxybicyclo[2.2.2]octan-1-yl}acetamide] | 10 to 50 nM |
| O=C(COc1ccc(F)c(F)c1)NC12CCC(NC(=O)COc3ccc(Cl)c(F)c3)(CC1)[C@@H](O)C2 [Compound 586, 2-(4-chloro-3-fluorophenoxy)-N-{(2S)-4-[2-(3,4-difluorophenoxy)acetamido]-2-hydroxybicyclo[2.2.2]octan-1-yl}acetamide] | < 10 nM |
| Cc1nn(C)c(C)c1OCC(=O)NC12CC(NC(=O)COc3ccc(Cl)c(F)c3)(C1)C2 [Compound 374, 2-(4-chloro-3-fluorophenoxy)-N-(3-{2-[(1,3,5-trimethyl-1H-pyrazol-4-yl)oxy]acetamido}bicyclo[1.1.1]pentan-1-yl)acetamide] | > 2000 nM |
| O=C(COc1ccc(C(F)(F)F)c(F)c1)NC12CCC(NC(=O)COc3ccc(C(F)(F)F)c(F)c3)(CC1)[C@@H](O)C2 [Compound 821, N,N′-[(2S)-2-hydroxybicyclo[2.2.2]octane-1,4-diyl]bis{2-[3-fluoro-4-(trifluoromethyl)phenoxy]acetamide}] | < 10 nM |
| O=C(CCOc1cccc(Cl)c1)NC12CC(NC(=O)COc3ccc(Cl)c(F)c3)(C1)C2 [Compound 147, N-{3-[2-(4-chloro-3-fluorophenoxy)acetamido]bicyclo[1.1.1]pentan-1-yl}-3-(3-chlorophenoxy)propanamide] | 50 to 250 nM |
| O=C(COc1ccc(C(F)(F)F)nc1)NC12CCC(NC(=O)COc3ccc(Cl)c(F)c3)(C1)C2 [Compound 188, 2-(4-chloro-3-fluorophenoxy)-N-[4-(2-{[6-(trifluoromethyl)pyridin-3-yl]oxy}acetamido)bicyclo[2.1.1]hexan-1-yl]acetamide] | 50 to 250 nM |
| O=C(COc1ccc(Cl)c(F)c1)NC12CC(N(CCO)C(=O)COc3ccc(C(F)(F)F)nc3)(C1)C2 [Compound 191, N-{3-[2-(4-chloro-3-fluorophenoxy)acetamido]bicyclo[1.1.1]pentan-1-yl}-N-(2-hydroxyethyl)-2-{[6-(trifluoromethyl)pyridin-3-yl]oxy}acetamide] | 500 to 2000 nM |
| O=C(COc1ccc(Cl)c(F)c1)NC12CCC(NC(=O)COc3ccc(Cl)c(F)c3)(CC1)C(O)(CO)C2 (stereo not shown) [Compound 644, N,N′-[2-hydroxy-2-(hydroxymethyl)bicyclo[2.2.2]octane-1,4-diyl]bis[2-(4-chloro-3-fluorophenoxy)acetamide]] | < 10 nM |
| N#Cc1ccc(COCC(=O)NC23CC(NC(=O)COc4ccc(Cl)c(F)c4)(C2)C3)cn1 [Compound 283, 2-(4-chloro-3-fluorophenoxy)-N-(3-{2-[(6-cyanopyridin-3-yl)methoxy]acetamido}bicyclo[1.1.1]pentan-1-yl)acetamide] | 500 to 2000 nM |
| CS(=O)(=O)c1ccc(OCC(=O)NC23CCC(NC(=O)COc4ccc(F)cc4)(CC2)[C@@H](O)C3)cc1F [Compound 767, 2-[3-fluoro-4-(methanesulfonyl)phenoxy]-N-{(3S)-4-[2-(4-fluorophenoxy)acetamido]-3-hydroxybicyclo[2.2.2]octan-1-yl}acetamide] | 250 to 500 nM |

| SMILES | EC50 |
| --- | --- |
| CO[C@H]1C[C@]2(NC(=O)COc3ccc(Cl)c(F)c3)CC[C@@]1(NC(=O)COc1ccc(Cl)c(F)c1)CC2O (mixture of isomers) [Compound 553, rac-N,N′-[(1R,4R,5S)-2-hydroxy-5-methoxybicyclo[2.2.2]octane-1,4-diyl]bis[2-(4-chloro-3-fluorophenoxy)acetamide]] | < 10 nM |
| O=C(COCc1ccc(F)cc1)NC12CC(NC(=O)COc3ccc(Cl)c(F)c3)(C1)C2 [Compound 142, 2-(4-chloro-3-fluorophenoxy)-N-(3-{2-[(4-fluorophenyl)methoxy]acetamido}-bicyclo[1.1.1]pentan-1-yl)acetamide] | 10 to 50 nM |
| Cc1ccc(OCC(=O)NC23CCC(NC(=O)COc4ccc5c(C)n[nH]c5c4)(CC2)[C@@H](O)C3)cc1 [Compound 746, N-{(2S)-2-hydroxy-4-[2-(4-methylphenoxy)acetamido]bicyclo[2.2.2]octan-1-yl}-2-[(3-methyl-1H-indazol-6-yl)oxy]acetamide] | 10 to 50 nM |
| Cc1cc(C)cc(OCC(=O)NC23CCC(NC(=O)COc4ccc(Cl)c(F)c4)(CC2)[C@@H](O)C3)c1 [Compound 470, 2-(4-chloro-3-fluorophenoxy)-N-{(2S)-4-[2-(3,5-dimethylphenoxy)acetamido]-2-hydroxybicyclo[2.2.2]octan-1-yl}acetamide] | 10 to 50 nM |
| COc1ccc(OCC(=O)NC23CCC(NC(=O)COc4ccc(Cl)c(F)c4)(CC2)[C@@H](O)C3)nc1 [Compound 667, 2-(4-chloro-3-fluorophenoxy)-N-[(2S)-2-hydroxy-4-{2-[(5-methoxypyridin-2-yl)oxy]acetamido}bicyclo[2.2.2]octan-1-yl]acetamide] | > 2000 nM |
| O=C(COc1ccc(Cl)c(F)c1)NC12CCC(NC(=O)COc3ccc4cn[nH]c4c3)(C1)C2 [Compound 187, 2-(4-chloro-3-fluorophenoxy)-N-(4-{2-[(1H-indazol-6-yl)oxy]acetamido}bicyclo[2.1.1]hexan-1-yl)acetamide] | 50 to 250 nM |
| O=C(COc1ccc(Cl)cc1)NC12CCC(NC(=O)COc3ccc(Cl)c(F)c3)(CC1)[C@@H](O)C2 [Compound 437, 2-(4-chloro-3-fluorophenoxy)-N-{(2S)-4-[2-(4-chlorophenoxy)acetamido]-2-hydroxybicyclo[2.2.2]octan-1-yl}acetamide] | < 10 nM |
| O=C(COc1ccc(Cl)c(F)c1)NC12CC(NC(=O)COc3ccc(Cl)c(F)c3)(C1)C2 [Compound 186, N,N′-(bicyclo[1.1.1]pentane-1,3-diyl)bis[2-(4-chloro-3-fluorophenoxy)acetamide]] | < 10 nM |
| O=C(COc1ccc(Cl)c(F)c1)NC12CCC(NC(=O)Cc3cccc(C(F)(F)F)c3)(CC1)C(O)C2 (stereo not shown) [Compound 321, 2-(4-chloro-3-fluorophenoxy)-N-(3-hydroxy-4-{2-[3-(trifluoromethyl)phenyl]acetamido}bicyclo[2.2.2]octan-1-yl)acetamide] | 500 to 2000 nM |
| O=C(COc1ccc(C(F)(F)F)nc1)NC12CCC(NC(=O)COc3ccc(C(F)(F)F)nc3)(CC1)[C@@H](O)C2 [Compound 541, N,N′-[(2S)-2-hydroxybicyclo[2.2.2]octane-1,4-diyl]bis(2-{[6-(trifluoromethyl)pyridin-3-yl]oxy}acetamide)] | 10 to 50 nM |
| O=C(CNc1ccc(Cl)cc1)NC12CC(NC(=O)COc3ccc(Cl)c(F)c3)(C1)C2 [Compound 203, N-{3-[2-(4-chloro-3-fluorophenoxy)acetamido]bicyclo[1.1.1]pentan-1-yl}-N^2-(4-chlorophenyl)glycinamide] | 50 to 250 nM |
| O=C(COc1ccc(C(F)(F)F)nc1)NC12CCC(NC(=O)COc3ccc(Cl)c(F)c3)(CC1)[C@@H](O)C2 [Compound 589, 2-(4-chloro-3-fluorophenoxy)-N-[(2S)-2-hydroxy-4-(2-{[6-(trifluoromethyl)pyridin-3-yl]oxy}acetamido)bicyclo[2.2.2]octan-1-yl]acetamide] | < 10 nM |
| Cc1ccc(OCC(=O)NC23CCC(NC(=O)COc4ccc(Cl)cc4)(CC2)[C@@H](O)C3)cc1F [Compound 732, 2-(4-chlorophenoxy)-N-{(2S)-4-[2-(3-fluoro-4-methylphenoxy)acetamido]-2-hydroxybicyclo[2.2.2]octan-1-yl}acetamide] | < 10 nM |
| CS(=O)(=O)c1cc(OCC(=O)NC23CCC(NC(=O)COc4ccc(Cl)c(F)c4)(CC2)[C@@H](O)C3)ccc1F [Compound 826, 2-(4-chloro-3-fluorophenoxy)-N-[(2S)-4-{2-[4-fluoro-3-(methanesulfonyl)phenoxy]acetamido}-2-hydroxybicyclo[2.2.2]octan-1-yl]acetamide] | 50 to 250 nM |
| COc1ccc(OCC(=O)NC23CCC(NC(=O)COc4ccc(Cl)c(F)c4)(CC2)[C@@H](O)C3)cn1 [Compound 651, 2-(4-chloro-3-fluorophenoxy)-N-[(2S)-2-hydroxy-4-{2-[(6-methoxypyridin-3-yl)oxy]acetamido}bicyclo[2.2.2]octan-1-yl]acetamide] | < 10 nM |
